One data set concerns leukocyte migration. The conditions noted are these: 3 mg/kg oral; 24 hours after implantation; cited from earlier work.
Data set [1] has as its system C8161 human melanoma cells. Description: Experimental metastasis assay, C8161 cells injected into athymic nude mice. It is filed as in vivo, human melanoma cells in athymic nude mice. Here is the method: To evaluate the role of integrin α4 in metastasis, experimental metastasis assays are performed by injecting 1×10^5 C8161 cells into the lateral tail vein of athymic nude mice. C8161 is a human melanoma cell line. […] Four-week-old female athymic nude mice (Harlan Sprague Dawley) are used. Animals are maintained under the guidelines of the NIH. Groups of 4-8 mice each are tested in experimental metastasis assays.
Treatment of C8161 cells with antisense oligonucleotide ISIS 27104, complementary to human integrin α4, is performed in the presence of the cationic lipid, LIPOFECTIN (Gibco/BRL, Gaithersburg, Md.). Cells are seeded in 60 mm tissue culture dishes at 10^6 cells/ml and incubated at 37° C. for 3 days, washed with Opti-MEM (Gibco/BRL) 3 times and 100 μl of Opti-MEM medium is added to each well. 0.5 μM oligonucleotide and 15 μg/ml LIPOFECTIN are mixed at room temperature for 15 minutes. 25 μl of the oligonucleotide-LIPOFECTIN mixture is added to the appropriate dishes and incubated at 37° C. for 4 hours. […] After 4 hours, 500 U/ml TNF-α is added to the appropriate wells and incubated for 18 hours at which time cells are removed from the plates, counted and injected into athymic nude mice. […]
After 4 weeks, mice are sacrificed, organs are fixed in Bouin's fixative and metastatic lesions on lungs are scored with the aid of a dissecting microscope.

Data set [2] concerns human integrin α4. Nature of the data set: Inhibition of human integrin α4 protein levels by antisense oligonucleotides (LIPOFECTIN, flow cytometry with CD49d-FITC) in A375 melanoma cells. The data set is classed as cell-based. More on the design: % Inhib.: tested at 200 nM. For orientation: In flow cytometry, cells or beads pass a laser one at a time.
Data set [3] has as its system human integrin α4. Nature of the data set: Integrin α4 protein expression in A375 cells after electroporation of oligonucleotide (flow cytometry). It is filed as cell-based. Here is the method: A375 cells were treated with ISIS 107245, 107248, 107252, 107255 and 107259 by electroporation at 175 volts, r=1, c=1000, 0.2 ml Opti-MEM, 1×10^6 cells /ml, 2 mm gap electrode using a BTX Electro Cell Manipulator 600 (Genetronics, San Diego Calif.). Oligonucleotide concentrations were 1, 3, 10 and 30 μM. Cells were harvested 24 hours after oligonucleotide treatment and strained with 2 ug/ml CD49d-FITC for flow cytometry as in the previous examples.
ISIS 107248 was compared directly to ISIS 27104 for ability to inhibit integrin α4 expression in A375 melanoma cells. Oligonucleotides were electroporated into cells as in the previous example.

In data set [4] the test system is dextran sulfate-mediated colitis in mice. The note with it: cited from earlier work.
[5] abbreviates: Table 24, A375 cells, lipofectin, as Example 8.

As to `COc1ccc2c(c1)c(CC(=O)O)c(C)n2C(=O)c1ccc(Cl)cc1` [Indomethacin], in the data set on leukocyte migration, the “reduction in mean leukocyte count compared to vehicle control” value is recorded as 75-80%.

With “27104 (CCCAAGCCATGCGCTCTCGG; phosphorothioate, 2'-MOE, 5-methyl-C, further chemistry not given here) [compound 27104]”, in data set [1] (TNF-α treated cells), the “enhanced metastatic ability of C8161 from TNF-α treatment” value is reported as “eliminates the enhanced metastatic ability”. Besides, the “metastatic potential of C8161 cells” value in data set [1] (cells treated with oligonucleotide before injection) was “decreases the metastatic potential”. Moreover, the “inhibition (Example 10)” value in the data set with human integrin α4 [2] (Example 10 assay, dose not stated) is reported as not below 40%. The “inhibition (Example 11)” value in the data set on human integrin α4 [2] (Example 11 assay, dose not stated) is listed as not below 40%. Also, the “% Control” value in the data set on human integrin α4 [2] (Table 4, 10 nM) is 69%; with human integrin α4 [2] (Table 4, 30 nM), 64%; in the data set with human integrin α4 [2] (Table 4, 100 nM), 49%; in the data set with human integrin α4 [2] (Table 4, 300 nM), 39%; in the data set on human integrin α4 [2] (Table 6, 10 nM), 84%; with human integrin α4 [2] (Table 6, 30 nM) it was 82%. Besides, the “% Control” value in the data set on human integrin α4 [2] (Table 6, 100 nM) amounted to 59%; in the data set on human integrin α4 [2] (Table 6, 300 nM), 37%; in the data set with human integrin α4 [2] (setting [5]) it was 69%; in the data set on human integrin α4 [3] (Table 25, 1 nM as printed, 24 hours), 86.2%; in the data set on human integrin α4 [3] (Table 25, 10 nM, 24 hours) it was 63.2%; in the data set with human integrin α4 [3] (Table 25, 30 nM, 24 hours), 35.3%. Moreover, the “% Control” value in the data set with human integrin α4 [3] (Table 26, 1 μM) amounted to 86.2%; with human integrin α4 [3] (Table 26, 3 μM), 63.2%; with human integrin α4 [3] (Table 26, 10 μM), 35.3%; in the data set with human integrin α4 [3] (Table 26, 30 μM), 27.1%. Besides, the “% Inhib.” value in the data set with human integrin α4 [2] (Table 4, 10 nM) amounted to 31%; in the data set on human integrin α4 [2] (Table 4, 30 nM) it was 36%; in the data set on human integrin α4 [2] (Table 4, 100 nM), 51%; with human integrin α4 [2] (Table 4, 300 nM (highest dose)), 61%; in the data set with human integrin α4 [2] (Table 6, 10 nM), 16%; with human integrin α4 [2] (Table 6, 30 nM), 18%. Also, the “% Inhib.” value in the data set on human integrin α4 [2] (Table 6, 100 nM) is on record as 41%; in the data set on human integrin α4 [2] (Table 6, 300 nM (highest dose)) it was 63%; in the data set on human integrin α4 [2] (setting [5]) it was 31%; in the data set on human integrin α4 [3] (Table 26, 1 μM), 13.8%; in the data set with human integrin α4 [3] (Table 26, 3 μM) it was 36.8%; with human integrin α4 [3] (Table 26, 10 μM), 64.7%. Also, the “% Inhib.” value with human integrin α4 [3] (Table 26, 30 μM) stood at 72.9%.

With TGF-β, the “dextran sulfate-mediated colitis” value in data set [4] is on record as “protect against dextran sulfate-mediated colitis in mice”.
